Reference: ChEMBL document CHEMBL1201862, “PubChem BioAssay data set” (2004)
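The compound was tested at five concentrations on cells cultured in 96-well plates, with a 48-hour exposure period. Here, GI50 denotes the concentration required for 50% inhibition of growth.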 Calls of active or inactive are those of the source. No stated cut-off is given here; in the data, active = GI50 up to about 1.1 µM and inactive = higher.

Tests used:
Assay in all cases: growth of human tumour cells (NCI), 48 h
OVCAR-5 = test system: OVCAR-5
U-251 = test system: U-251
SK-OV-3 = test system: SK-OV-3
OVCAR-4 = test system: OVCAR-4
OVCAR-8 = test system: OVCAR-8
NCI-H522 = test system: NCI-H522
PC-3 = test system: PC-3
HCC 2998 = test system: HCC 2998
NCI-H226 = test system: NCI-H226
SK-MEL-28 = test system: SK-MEL-28
HCT-15 = test system: HCT-15
HCT-116 = test system: HCT-116
SW-620 = test system: SW-620
A498 = test system: A498
Malme-3M = test system: Malme-3M
Hs-578T = test system: Hs-578T
HT-29 = test system: HT-29
SF-268 = test system: SF-268
SK-MEL-2 = test system: SK-MEL-2
DU-145 = test system: DU-145
MDA-MB-231 = test system: MDA-MB-231
UACC-257 = test system: UACC-257
SNB-19 = test system: SNB-19
SF-539 = test system: SF-539
UACC-62 = test system: UACC-62
TK-10 = test system: TK-10
MDA-MB-435 = test system: MDA-MB-435
RPMI-8226 = test system: RPMI-8226
NCI/ADR-RES = test system: NCI/ADR-RES
SR = test system: SR
ACHN = test system: ACHN
SN12C = test system: SN12C
OVCAR-3 = test system: OVCAR-3
LOX IMVI = test system: LOX IMVI
MCF7 = test system: MCF7
CCRF-CEM = test system: CCRF-CEM
NCI-H460 = test system: NCI-H460
A549 = test system: A549
CAKI-1 = test system: CAKI-1
K562 = test system: K562
MDA-N = test system: MDA-N
NCI-H23 = test system: NCI-H23
SK-MEL-5 = test system: SK-MEL-5
BT-549 = test system: BT-549
RXF 393 = test system: RXF 393
COLO 205 = test system: COLO 205
M14 = test system: M14
T47D = test system: T47D
MOLT-4 = test system: MOLT-4
IGROV-1 = test system: IGROV-1
HOP-92 = test system: HOP-92
786-0 = test system: 786-0
UO-31 = test system: UO-31
HL-60 = test system: HL-60
SNB-75 = test system: SNB-75
EKVX = test system: EKVX
KM12 = test system: KM12
SF-295 = test system: SF-295
HOP-62 = test system: HOP-62

COC(C)(C)CCc1[nH]c2ccccc2c1CC(=O)NCCc1cncn1C
GI50 (OVCAR-5): > 100 µM (inactive) | GI50 (U-251): > 100 µM (inactive) | GI50 (SK-OV-3): > 100 µM (inactive) | GI50 (OVCAR-4): > 100 µM (inactive) | GI50 (OVCAR-8): > 100 µM (inactive) | GI50 (NCI-H522): > 100 µM (inactive) | GI50 (PC-3): > 100 µM (inactive) | GI50 (HCC 2998): > 100 µM (inactive) | GI50 (NCI-H226): > 100 µM (inactive) | GI50 (SK-MEL-28): > 100 µM (inactive) | GI50 (HCT-15): > 100 µM | GI50 (HCT-116): > 100 µM (inactive) | GI50 (SW-620): > 100 µM (inactive) | GI50 (A498): 34.3 µM (inactive) | GI50 (Malme-3M): > 100 µM (inactive) | GI50 (Hs-578T): > 100 µM (inactive) | GI50 (HT-29): > 100 µM (inactive) | GI50 (SF-268): > 100 µM (inactive) | GI50 (SK-MEL-2): > 100 µM (inactive) | GI50 (DU-145): > 100 µM (inactive) | GI50 (MDA-MB-231): > 100 µM (inactive) | GI50 (UACC-257): > 100 µM (inactive) | GI50 (SNB-19): > 100 µM (inactive) | GI50 (SF-539): > 100 µM (inactive) | GI50 (UACC-62): > 100 µM (inactive) | GI50 (TK-10): > 100 µM (inactive) | GI50 (MDA-MB-435): > 100 µM (inactive) | GI50 (RPMI-8226): > 100 µM (inactive) | GI50 (NCI/ADR-RES): > 100 µM (inactive) | GI50 (SR): > 100 µM (inactive) | GI50 (ACHN): > 100 µM (inactive) | GI50 (SN12C): > 100 µM (inactive) | GI50 (OVCAR-3): > 100 µM (inactive) | GI50 (LOX IMVI): > 100 µM (inactive) | GI50 (MCF7): > 100 µM (inactive) | GI50 (CCRF-CEM): > 100 µM (inactive) | GI50 (NCI-H460): > 100 µM (inactive) | GI50 (A549): > 100 µM (inactive) | GI50 (CAKI-1): > 100 µM (inactive) | GI50 (K562): > 100 µM (inactive) | GI50 (MDA-N): > 100 µM (inactive) | GI50 (NCI-H23): > 100 µM (inactive) | GI50 (SK-MEL-5): > 100 µM (inactive) | GI50 (BT-549): > 100 µM (inactive) | GI50 (RXF 393): > 100 µM (inactive) | GI50 (COLO 205): > 100 µM (inactive) | GI50 (M14): > 100 µM (inactive) | GI50 (T47D): > 100 µM (inactive) | GI50 (MOLT-4): > 100 µM (inactive) | GI50 (IGROV-1): > 100 µM (inactive) | GI50 (HOP-92): > 100 µM (inactive) | GI50 (786-0): > 100 µM (inactive) | GI50 (UO-31): > 100 µM (inactive) | GI50 (HL-60): > 100 µM (inactive) | GI50 (SNB-75): > 100 µM (inactive) | GI50 (EKVX): > 100 µM (inactive) | GI50 (KM12): > 100 µM (inactive)

CC1(C)Oc2ccc3ccc(=O)oc3c2C(O)C1O (centres undefined)
GI50 (OVCAR-5): > 100 µM (inactive) | GI50 (U-251): 38.3 µM (inactive) | GI50 (OVCAR-4): 39.5 µM (inactive) | GI50 (OVCAR-8): 34 µM (inactive) | GI50 (NCI-H522): 33.7 µM (inactive) | GI50 (PC-3): 31.6 µM (inactive) | GI50 (HCC 2998): > 100 µM (inactive) | GI50 (NCI-H226): 48.3 µM (inactive) | GI50 (SK-MEL-28): 37.5 µM (inactive) | GI50 (HCT-15): 41.9 µM | GI50 (HCT-116): 38.8 µM (inactive) | GI50 (SW-620): 61.1 µM (inactive) | GI50 (A498): > 100 µM (inactive) | GI50 (Malme-3M): 40.3 µM (inactive) | GI50 (Hs-578T): 52.1 µM (inactive) | GI50 (HT-29): 28.1 µM (inactive) | GI50 (SF-268): 40.6 µM (inactive) | GI50 (SK-MEL-2): > 100 µM (inactive) | GI50 (DU-145): 55.8 µM (inactive) | GI50 (MDA-MB-231): 71.8 µM (inactive) | GI50 (UACC-257): 29.4 µM (inactive) | GI50 (SNB-19): > 100 µM (inactive) | GI50 (SF-539): 22.9 µM (inactive) | GI50 (UACC-62): 8.39 µM (inactive) | GI50 (MDA-MB-435): 33.7 µM (inactive) | GI50 (RPMI-8226): 30.2 µM (inactive) | GI50 (NCI/ADR-RES): 34 µM (inactive) | GI50 (SR): 59.4 µM (inactive) | GI50 (ACHN): 44.6 µM (inactive) | GI50 (SN12C): > 100 µM (inactive) | GI50 (OVCAR-3): 37.2 µM (inactive) | GI50 (LOX IMVI): 29.5 µM (inactive) | GI50 (MCF7): 33.9 µM (inactive) | GI50 (CCRF-CEM): 31.7 µM (inactive) | GI50 (SF-295): 36.1 µM (inactive) | GI50 (NCI-H460): 40 µM (inactive) | GI50 (A549): 32.2 µM (inactive) | GI50 (CAKI-1): 67.1 µM (inactive) | GI50 (K562): 37.6 µM (inactive) | GI50 (MDA-N): 35.1 µM (inactive) | GI50 (NCI-H23): 44.2 µM (inactive) | GI50 (SK-MEL-5): 15.9 µM (inactive) | GI50 (BT-549): 22.5 µM (inactive) | GI50 (RXF 393): 67.1 µM (inactive) | GI50 (COLO 205): 21.8 µM (inactive) | GI50 (M14): 36.6 µM (inactive) | GI50 (T47D): 35.3 µM (inactive) | GI50 (MOLT-4): 21.7 µM (inactive) | GI50 (HOP-62): 36.1 µM (inactive) | GI50 (IGROV-1): 33.2 µM (inactive) | GI50 (HOP-92): 57.8 µM (inactive) | GI50 (786-0): 45 µM (inactive) | GI50 (UO-31): 27.5 µM (inactive) | GI50 (HL-60): 33.3 µM (inactive) | GI50 (SNB-75): 38.8 µM (inactive) | GI50 (EKVX): 48.1 µM (inactive) | GI50 (KM12): 31.9 µM (inactive)
